The numbers were not newly measured in patent publication US20230263755A1, “STABILIZATION OF ACETAMINOPHEN IN AQUEOUS SOLUTION” (Nostrum Pharmaceuticals, LLC, priority 2022, published 2023), which cites them from elsewhere.

For the compound `CC(=O)Nc1ccc(O)cc1` [acetaminophen, N-(4-hydroxyphenyl)acetamide], the half-life entry is “about 2 hours”.
